We go through 1 molecule from patent US11351221B2, “SMAC mimetic” (Medivir AB, priority 2009, dated 2022).

The structures appear in SMILES notation.

One data set concerns the target T1, cIAP-2 (Homo sapiens, UniProt Q13489).
T1 construct: expressed in transfected cells; host or cells: A375 (A375Gc2)
Description: cIAP degradation assay (GFP-cIAP-2). Format: cell-based. The settings on record: A375Gc2 cells, 2 h treatment, 50% of GFP signal inhibited (FACS); read-out: GFP-cIAP-2 IC50. The procedure:
The concentration inducing degradation of cIAP-1 and cIAP-2 by 50% (IC50) for various compounds was determined by monitoring the disappearance of Green Fluorescent Protein (GFP)-signal in A375 cells. Briefly, A375 cell lines expressing GFP-tagged cIAP-1 and cIAP-2 were generated by transfecting HA2xEGFP-pcDNA3 vector containing either cIAP-1 (A375Gc1) or cIAP-2 (A375Gc2) coding region. 2×10^4 of A375Gc1 or A375Gc2 cells were grown in 96-well plate and treated with various concentrations of test compounds for 2 h. After incubation, cells were collected by trypsinization and suspended in 150 μl of DMEM-10% FBS. A total of 10^4 cells were analyzed using a FACScan (Becton Dickinson). GFP fluorescence was monitored by using an excitation filter at 488 nm and emission was measured with a 530 nm filter. IC50 is defined as the concentration of drug at which 50% of GFP signal was inhibited.

The subject of data set [1] is SKOV-3 ovarian tumor cell. Description: SKOV-3 cytotoxicity (MTT assay). Format: cell-based. The settings on record: Homo sapiens, SK-OV-3 cells, 72 hrs, concentration giving 50% cell survival. The protocol:
SKOV-3 ovarian tumor cell cytotoxicity data were generated substantially as follows. The MTT (3-(4,5-Dimethylthiazol-2-yl)-2,5-diphenyltetrazolium bromide) assay is an example of an assay that has been used for measuring cell growth as previously described (Hansen, M. B., Nielsen, S. E., and Berg, K. (1989) J. Immunol Methods 119, 203-210) and incorporated herein by reference in its entirety. Briefly, SK-OV-3 cells were seeded in 96-well plates in McCoy's medium containing 10% fetal bovine serum albumin (5,000 per well) and incubated overnight at 37° C. The next day, test compounds were added at various concentrations (0.003-10 μM) and the plates were incubated at 37° C. for an additional 72 hrs. This incubation time was optimal for measuring inhibitory effects of different analogs. Fifty microliters of 5 mg/mL MTT reagent to each well was added and the plates were incubated at 37° C. for 3 hours. At the end of the incubation period, 50 microliters of DMSO was added to each well to dissolve cells and the optical density (OD) of the wells was measured using a microplate reader (Victor^2 1420, Wallac, Finland) at 535 nm. Cell survival (CS) was calculated by the following equation: CS=(OD treated well/mean OD control wells)×100%
The CC50, defined as the drug concentration that results in 50% CS, was derived by calculating the point where the dose-response curve crosses the 50% CS point using GraphPad Prism.
A general note: Tetrazolium dyes change colour on reduction, which living cells bring about.

In data set [2] the test system is MDA-MB-231 human breast tumor cells. The experiment in a line: MDA-MB-231 xenograft tumor growth delay. Format: in vivo, female nude mice. The settings on record: 15 mg/Kg i.p., q3dx5. The protocol:
MDA-MB-231 xenograft data were generated substantially as follows. MDA-MB-231 human breast tumor cells were injected into the mammary fat pad of female nude mice and dosing initiated twelve days later at an average tumor volume of approximately 148 mm^3. No tumor burden was associated with this model based on lack of weight loss or animal morbidity in control groups. Mice were injected subcutaneously into the mammary fat pad with 1×10^7 cells suspended in 200 μl of a 1:1 HBSS: Matrigel solution; injected cells were within nine passages of the original lot. Pre-study tumor volumes were recorded beginning approximately one week prior to the estimated start date. When tumors reached approximately 150 mm^3 animals are matched by tumor volume into treatment and control groups and dosing initiated (Day 0); mice are tagged and followed individually throughout the experiment. Animals were dosed by weight (0.01 mL per gram; 10 ml/Kg).
Beginning on Day 0, animals were observed daily and weighed twice weekly using a digital scale (Ohaus SP601); data including individual and mean gram weights (Mean We±SD), mean percent weight change versus Day 0 (% vD0) and mean percent weight change versus prior measurement (% vD−x) were recorded for each group and plotted at study completion.
Beginning on Day 0, tumor dimensions were measured twice weekly by digital caliper (Fowler Ultra-Cal IV) and data including individual and mean estimated tumor volumes (Mean TV±SEM) recorded for each group; tumor volume was calculated using the formula: TV=width^2×length×0.52. Individual mice reaching the designated study endpoint (an estimated tumor volume of approximately 1 cm^3) were assigned a time to endpoint (TTE) value corresponding to that day; the tumor growth delay (TGD) study was concluded once all mice reach the study endpoint or sixty days following study initiation. At study completion, TGD and % TGD are calculated using the median TTE (MTTE) value for each treatment (T) group versus control (C) by the formulas: TGD(days)=T−C and % TGD=T−C/C×100, wherein T−C is the difference between MTTE-Treatment Group and MTTE-Control. Tumored animals not reaching the designated volume endpoint by study completion are considered long-term survivors (LTS) and assigned a TTE value corresponding to the final study day; tumor-free animals are not included in TGD calculations. A Log-rank test is used to determine statistically significant differences in overall survival experience between each treated group compared to control. Individual mice reporting a tumor volume ≤50% of the Day 0 measurement for two consecutive measurements over a seven day period were considered partial responders (PR). If the PR persisted until study completion, percent tumor regression (% TR) was determined using the formula: % TR=1−Tf/Ti×100; a mean value was calculated if multiple PR mice occurred in one group. Individual mice lacking palpable tumors (<4×4 mm^2 for two consecutive measurements over a seven day period) were classified as complete responders (CR); a CR that persisted until study completion was considered a tumor-free survivor (TFS); TFS animals are excluded from TGD calculations and statistical analysis. Statistical differences in MTTE values between control and treatment groups are compared using a Log Rank test.

T1 sequence (Q13489 whole entry, species assumed): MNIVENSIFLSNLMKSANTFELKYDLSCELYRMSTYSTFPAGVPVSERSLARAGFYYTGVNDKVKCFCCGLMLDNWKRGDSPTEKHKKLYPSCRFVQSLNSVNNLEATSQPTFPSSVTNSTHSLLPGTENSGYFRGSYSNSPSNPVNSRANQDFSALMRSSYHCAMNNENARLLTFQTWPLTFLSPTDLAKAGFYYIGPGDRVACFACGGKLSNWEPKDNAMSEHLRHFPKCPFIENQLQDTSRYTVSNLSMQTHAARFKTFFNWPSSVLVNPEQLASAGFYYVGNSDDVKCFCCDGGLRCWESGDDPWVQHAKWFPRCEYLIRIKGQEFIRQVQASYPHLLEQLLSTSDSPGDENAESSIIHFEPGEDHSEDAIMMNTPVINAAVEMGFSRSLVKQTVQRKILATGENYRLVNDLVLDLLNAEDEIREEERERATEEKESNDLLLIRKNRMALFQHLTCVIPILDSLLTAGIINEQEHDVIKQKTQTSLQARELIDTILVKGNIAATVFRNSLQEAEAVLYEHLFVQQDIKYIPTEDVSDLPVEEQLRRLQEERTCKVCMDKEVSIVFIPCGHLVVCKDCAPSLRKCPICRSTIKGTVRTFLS

Regarding `CN[C@@H](C)C(=O)N[C@H](C(=O)N1C[C@@H](O)C[C@H]1Cc1c(-c2[nH]c3cc(F)ccc3c2C[C@@H]2C[C@H](O)CN2C(=O)[C@@H](NC(=O)[C@H](C)NC)[C@@H](C)OC)[nH]c2cc(F)ccc12)[C@@H](C)OC` [Compound 5], the DC50 at cIAP-2 amounted to 37 nM. Moreover, in data set [1], the CC50 – broadly, the concentration that lowers cell viability or growth by half – came out at 0.13 nM. In data set [2], the Long-term survivors is 3/10, the Partial tumor regression entry was “five” and the “T−C value (tumor growth delay)” value was 21 days. In addition, in data set [2] (nude mice), the “Weight loss compared to mice dosed with Compound 15 at 20 mg/Kg” value is listed as “greater”.
